Laboratory results taken from PMC9847679, “The anti-breast cancer stem cell properties of gold(I)-non-steroidal anti-inflammatory drug complexes” (Chemical Science, 2022).

Legend:
[1] = test system: HMLER-shEcad cells; assay: Mammosphere formation assay; format: cell-based, human; conditions: at IC20 value, single cell suspensions, 5 days incubation
Experimental: (§1) media. The final concentration of DMSO in each well was ≤1 %. After 72 h, 20 μl of MTT (4 mg mL-1 in PBS) was added to each well and the plates incubated for an additional 4 h at 37 °C. The media/MTT mixture was eliminated and DMSO (100 μl per well) was added to dissolve the formazan precipitates. The optical density was measured at 550 nm using a 96-well multiscanner autoreader. Absorbance values were normalised to (DMSO-containing) control wells and plotted as concentration of test compound versus % cell viability. IC50 values were interpolated from the resulting dose dependent curves. The reported IC50 values are the average of three independent experiments (n = 18).
(§2) Tumorsphere Formation and Viability Assay. […] Mammospheres treated with 1-3, 5-fluorouracil, capecitabine, cisplatin, carboplatin, and salinomycin (at their respective IC20 values, 5 days) were counted and imaged using an inverted microscope. The viability of the mammospheres was determined by addition of a resazurin-based reagent, TOX8 (Sigma). After incubation for 16 h, the fluorescence of the solutions was read at 590 nm (λex = 560 nm). […] Fluorescence values were normalised to DMSO-containing controls and plotted as concentration of test compound versus % mammospheres viability. […]
(§3) Cellular Uptake. […] The number of cells was counted at this stage, using a haemocytometer. […] Gold levels are expressed as mass of Au (ng) per million cells. […]

[2] = test system: COX-2; assay: COX-2 expression assay (flow cytometry); format: cell-based, human; conditions: LPS 2.5 μM 24 h pre-treatment; 1 at IC50 value or indomethacin 20 μM, 48 h
Experimental: COX-2 Expression Assay. HMLER-shEcad cells were seeded in 6-well plates (at a density […]
indomethacin (20 μM) and incubated for a further 48 h. The cells were then harvested by trypsinisation, fixed with 4% paraformaldehyde (at 37 °C for 10 min), permeabilised with ice-cold methanol (for 30 min), and suspended in PBS (200 μL). […]
labelled anti-COX-2 antibody (5 μL) was then added to the cell suspension and incubated in the dark for 1 h. The cells were then washed with PBS (1 mL) and analysed using a FACSCanto II flow cytometer (BD Biosciences) (10,000 events per sample were acquired) at the University of Leicester FACS Facility. The FL1 channel was used to assess COX-2 expression. Cell populations were analysed using the FlowJo software (Tree Star).
COX-2 Inhibition Enzyme Immunoassay (EIA). […]
(ovine) Inhibitor Screening Assay (Cayman Chemicals).” The assay was performed according to the manuf acturer’s instructions using a 96-well plate set up.

[3] = Reaction with thiol-containing biomolecules (1H and 31P NMR); conditions: 10 mM in DMSO-d6, 37 °C, 72 h
Experimental: As the mechanism of toxicity of many gold(I) complexes is associated to their interaction with thiol groups in proteins,[23] the reaction of 1 with N-acetylcysteine (NAC) and glutathione (GSH), model thiol-containing biomolecules, was probed using ^1H and ^31P{^1H} NMR spectroscopy studies (over 72 h at 37 °C). […] The ^31P{^1H} NMR studies also indicated the immediate formation of [Au^I(NAC)(PPh3)] or [Au^I(GSH)(PPh3)] (Fig. S50–S51 ^†). [Au^I(NAC)(PPh3)] and [Au^I(GSH)(PPh3)] were independently prepared in situ by reacting [Au^I(acac)(PPh3)][58] with NAC or GSH in DMSO-d6, to confirm the abovementioned assignments.

[4] = test system: HMLER-shEcad cells; assay: Intracellular ROS assay (DCFH-DA, flow cytometry); format: cell-based, human; conditions: 0.4 μM
Experimental: as §1, §2, §3

COc1ccc2c(c1)c(CC(=O)[O][Au][PH](c1ccccc1)(c1ccccc1)c1ccccc1)c(C)n2C(=O)c1ccc(Cl)cc1 [complex 1]
number and size of mammospheres formed [1]: greatest inhibitory effect
COX-2 expression [2]: decreased
reaction with stoichiometric NAC or GSH [3]: The reaction occurred immediately
increase in intracellular ROS levels ([4]; 6 h exposure (peak)): 104%
increase in intracellular ROS levels ([4]; prolonged (16–24 h) exposure): statistically insignificant increases in ROS levels
